Test results from patent publication US9879008B2, “2,3,4,6-tetra-substituted benzene-1,5-diamine derivatives, preparation method therefor and medicinal use thereof” (SHANGHAI HAIYAN PHARMACEUTICAL TECHNOLOGY CO., LTD., priority 2014, dated 2018).

What was measured:
wild-type EGFR kinase = target: T1, wild-type EGFR kinase (Homo sapiens, UniProt P00533); test: z-lyte inhibition test against wild-type EGFR kinase; assay type: biochemical; settings: 10 μM ATP, read-out: EGFR WT (IC50/nM);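 also: reaction volume 10 µL holding 0.8 ng/µL enzyme and 2 µM Tyr04 substrate, with DMSO at 2% once compounds are present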
T1 construct: purchased Invitrogen PV3872

H1975 cell = test: MTT cytostatic activity, H1975 cell; assay type: cell-based; settings: MTT;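 also: cells in 96-well plates exposed to compound for 72 h, then given MTT for a further 4 h at 37 °C under 5% CO2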
A431 cell = test: MTT cytostatic activity, A431 cell; assay type: cell-based; settings: Homo sapiens, A-431; MTT, 72 h; read-out: A431 cell (IC50/nM)
NIH3T3 cell = test: MTT cytotoxicity against NIH3T3 cells; assay type: cell-based; settings: Mus musculus, NIH3T3; cytotoxicity, MTT, 72 h; read-out: MTT assay against NIH3T3 cell (IC50/nM)
A431 cells = test: ELISA assay for cell activity, EGF-treated A431 cells; assay type: cell-based; settings: Homo sapiens, A-431, compound 1 h, then EGF 45 min;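 also: Serum-starved A431 cells, ELISA on lysates read as OD450 minus OD570, inhibition scaled between EGF-stimulated wells (0%) and unstimulated cell control (100%), DMSO 0.5% final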
[1] = Pharmacokinetics in vivo in rats (LC/MS/MS plasma concentration); parameters: species or system SD rats; settings: male, SD, plasma, rat
Excerpt: (§1) LC/MS/MS method was applied for determining the drug concentration in plasma at different times after the exemplary compounds were intragastrically and intravenously administered respectively to rats or mice in order to study the pharmacokinetic behavior of the compounds of the invention in vivo in rats or mice and to evaluate their pharmacokinetic characteristics.
(§2) Test Animals: healthy adult male SD rats (weight 200-300 g, 6, fasted) or male CD1 mice (weight 20-30 g, 18 mice, free access to water and food), provided by SLAC company.
(§3) Administration and Dosage: SD rats were administered intravenously on foot dorsal (1 mg/kg, 5 mL/kg, 5% DMAC (dimethylacetamide), 5% Solutol HS 15 (polyethylene glycol-15 hydroxystearate) and 90% saline); and were administered intragastrically (20 mg/kg, 10 mL/kg, 0.5% sodium carboxymethylcellulose aqueous solution); CD1 mice were administered intravenously via tail (1 mg/kg, 5 ml/kg, 5% DMAC, 5% Solutol HS 15 and 90% Saline) and were administered intragastrically (5 mg/kg, 10 mL/kg, 0.5% DMAC, 5% Solutol HS 15 and 90% saline).
(§4) Blood collection: Firstly, the animals which were selected prior to administration and met testing requirements were weighted. The rats or mice were bound before collecting blood. Blood from each administered rat was taken at predetermined time points (intravenous administration on foot dorsal: blood was collected before administration and at 0.083, 0.25, 0.5, 1, 2, 4, 8, 24 h after administration respectively, 9 time points in total; intragastrical administration: blood was collected before administration and at 0.083, 0.25, 0.5, 1, 2, 4, 8, 24 h after administration respectively, 9 time points in total), about 150 μL of blood was collected via tail vein or heart (collecting terminal blood). Blood from each administered mouse was taken at predetermined time points (intravenous administration via tail: blood was collected at 0.083, 0.25, 0.5, 1, 2, 4, 8, 24 h, 8 time points in total; intragastrical administration: blood was collected at 0.25, 0.5, 1, 2, 4, 8, 24 h, 7 time points in total), about 150 μL of blood was collected via orbit or heart (collecting terminal blood). Blood was transferred to a 1.5 mL tube to which K2EDTA was added previously. The collected blood sample was put on wet ice, centrifuged for 5 min (2000 g, at 4° C.), and then the plasma sample was taken. The whole operation was finished within 15 minutes. All of the samples were stored in a refrigerator at −70° C. until analysis.
(§5) The concentration of the drug was determined using LC/MS/MS. The pharmacokinetic parameters of some exemplary compounds of the invention in vivo in rats and mice at same doses and through same administration were shown in Table 5: […]

[2] = Pharmacokinetics in vivo in mice (LC/MS/MS plasma concentration); parameters: species or system CD1 mice; settings: male, CD1, mouse, plasma
Excerpt: as §1, §2, §3, §4, §5

H1975 cells = test: ELISA assay for cell activity of EGFR T790M inhibitor, H1975 cells

T1 sequence (P00533 25-1210): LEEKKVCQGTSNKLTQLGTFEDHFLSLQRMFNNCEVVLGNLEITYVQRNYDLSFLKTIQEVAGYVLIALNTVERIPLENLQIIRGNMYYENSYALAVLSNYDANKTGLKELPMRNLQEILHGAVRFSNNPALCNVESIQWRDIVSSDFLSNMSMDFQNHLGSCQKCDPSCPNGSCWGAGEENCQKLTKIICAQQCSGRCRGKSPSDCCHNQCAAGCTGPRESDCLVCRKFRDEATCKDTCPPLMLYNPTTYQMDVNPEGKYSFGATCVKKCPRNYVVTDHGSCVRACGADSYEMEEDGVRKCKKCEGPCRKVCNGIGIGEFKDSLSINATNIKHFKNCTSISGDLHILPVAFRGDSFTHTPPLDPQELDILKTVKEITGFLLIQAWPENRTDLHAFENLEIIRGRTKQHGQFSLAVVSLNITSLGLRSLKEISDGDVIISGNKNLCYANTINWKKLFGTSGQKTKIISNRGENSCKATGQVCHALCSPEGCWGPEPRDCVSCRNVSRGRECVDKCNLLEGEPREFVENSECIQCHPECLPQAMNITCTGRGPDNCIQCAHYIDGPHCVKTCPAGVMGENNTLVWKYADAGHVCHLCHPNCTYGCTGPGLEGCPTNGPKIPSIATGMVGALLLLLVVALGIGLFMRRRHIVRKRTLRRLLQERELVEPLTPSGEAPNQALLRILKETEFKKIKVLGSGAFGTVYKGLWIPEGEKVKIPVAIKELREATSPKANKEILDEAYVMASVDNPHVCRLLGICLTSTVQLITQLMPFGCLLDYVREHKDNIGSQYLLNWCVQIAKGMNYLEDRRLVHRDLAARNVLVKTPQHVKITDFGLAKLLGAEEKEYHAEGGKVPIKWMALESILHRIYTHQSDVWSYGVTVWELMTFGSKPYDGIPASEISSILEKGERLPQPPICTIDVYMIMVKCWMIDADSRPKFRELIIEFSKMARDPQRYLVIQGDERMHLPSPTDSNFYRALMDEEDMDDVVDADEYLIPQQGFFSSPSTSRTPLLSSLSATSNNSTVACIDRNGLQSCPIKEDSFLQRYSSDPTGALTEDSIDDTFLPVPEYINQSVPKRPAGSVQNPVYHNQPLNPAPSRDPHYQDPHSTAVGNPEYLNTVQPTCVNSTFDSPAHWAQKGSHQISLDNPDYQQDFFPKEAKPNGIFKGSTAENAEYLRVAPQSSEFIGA

IC50 (wild-type EGFR kinase): 16 nM
IC50 (H1975 cell; Homo sapiens, NCI-H1975, 72 h, read-out: H1975 cell (IC50/nM)): 7 nM
Selective inhibitory activity against cells [IC50(A431 cell)/IC50(H1975 cell)] (H1975 cell; ratio of cell IC50 values): 132.3
IC50 (A431 cell): 926 nM
IC50 (A431 cells): 458 nM
bioavailability ([1]; po, intragastric 20 mg/kg vs intravenous 1 mg/kg, read-out: Oral relative bioavailability F): 128%
AUC ([1]; intravenous 1 mg/kg, intragastric 20 mg/kg (route per parameter not given), read-out: Area under the curve AUC): 5980 ng·h/mL
clearance ([1]; intravenous 1 mg/kg, intragastric 20 mg/kg (route per parameter not given), read-out: Clearance CL): 71.2 mL/min/kg
half-life ([1]; intravenous 1 mg/kg, intragastric 20 mg/kg (route per parameter not given), read-out: Half-life T1/2 (converted)): 3.73 h
Cmax ([1]; intravenous 1 mg/kg, intragastric 20 mg/kg (route per parameter not given), read-out: Maximum plasma concentration Cmax): 482 ng/mL
AUC ([2]; intravenous 1 mg/kg, intragastric 5 mg/kg (route per parameter not given), read-out: Area under the curve AUC): 1290 ng·h/mL
clearance ([2]; intravenous 1 mg/kg, intragastric 5 mg/kg (route per parameter not given), read-out: Clearance CL): 42.5 mL/min/kg
half-life ([2]; intravenous 1 mg/kg, intragastric 5 mg/kg (route per parameter not given), read-out: Half-life T1/2 (converted)): 3.4 h
Cmax ([2]; intravenous 1 mg/kg, intragastric 5 mg/kg (route per parameter not given), read-out: Maximum plasma concentration Cmax): 139 ng/mL
bioavailability ([2]; po, intragastric 5 mg/kg vs intravenous 1 mg/kg, read-out: Oral relative bioavailability F): 66.6%
Selective inhibitory activities against cell [IC50(A431 cell)/IC50(H1975 cell)] (H1975 cells; ELISA, ratio of cell IC50 values): 23
IC50 (H1975 cells; Homo sapiens, NCI-H1975, 1 h, read-out: H1975 cell (IC50/nM)): 20 nM
Structure (SMILES): C=CC(=O)Nc1cc(Nc2ncc(Cl)c(SC3CN(S(C)(=O)=O)C3)n2)c(OC)cc1N1CCC(N(C)C)CC1 [Compound J-13, N-(5-(5-chloro-4-(1-(methylsulfonyl)azetidine-3-thio)pyrimidine-2-amino)-2-(4-(dimethylamino)piperidine-1-yl)-4-methoxylphenyl)acrylamide]
IC50 (NIH3T3 cell): > 10000 nM
